In ChEMBL document CHEMBL5584284, “Advancing Neurological Therapies: Integrating Novel Compounds and Clinical Trials for Enhanced Cognitive and Neuronal Health” (ACS Med Chem Lett, 2024):
Activity calls are given as the source filed them. The rule behind the calls is not given here.

Experiments:
Format in all cases: functional, cell-based
Cortical neurone [1] = assay: Neuroplasticity effect in Wistar rat cortical neurons assessed as increase in neurite number at <= 10 uM incubated for 72 […]
Cortical neurone [2] = assay: Neuroplasticity effect in Wistar rat cortical neurons assessed as increase in neurite length at <= 10 uM incubated for 72 […]
Cortical neurone [3] = assay: Neuroplasticity effect in Wistar rat cortical neurons assessed as increase in neurite branching at <= 10 uM incubated for 72 […]

Compound	Activity (Cortical neurone [1])	Activity (Cortical neurone [2])	Activity (Cortical neurone [3])
CN1CCC2Nc3cc(Oc4ccccc4)ccc3C2CC1 (stereo not drawn)	Active	Active	Active
CN1CCC2Nc3cc(OCc4ccccc4)ccc3C2CC1 (stereo not drawn)	Active	Active	inactive
CN1CCC2Nc3cc(OCc4ccc(F)cc4)ccc3C2CC1 (stereo not drawn)	Active	Active	Active
c1ccc(COc2ccc3c(c2)NC2CCNCCC32)cc1 (stereo not drawn)	Active	Active	Active
Fc1ccc(Oc2ccc3c(c2)NC2CCNCCC32)cc1 (stereo not drawn)	Active	Active	Active
CN1CCC2c3ccc(Oc4ccccc4)cc3N(C)C2CC1 (stereo not drawn)	inactive	Active	inactive
